Experimental data published in patent publication US20200024662A1, “METHODS FOR TREATING OPIOID ADDICTION” (ASSUREX HEALTH, INC., priority 2016, published 2020).
Entries after “also recorded” stand apart in the source; their conditions may differ.

Columns and labels:
[1] = test system: patients treated with Methadone in the START trial; assay: PK/PD Model 1 binning vs Methadone completion; format: in vivo, human
Procedure: (§1) For the model analyses, models were developed that sort patients into one of three categories, Green (‘G’) Yellow (‘Y’) or Red (‘R’). Patients determined to be high risk for non-completion by the model are placed into the Red Bin. Patients at intermediate risk of non-completion are placed in the Yellow Bin, and for this study, Yellow Bin patients are treated the same as patients found to be at Low Risk of non-completion, or those who are placed in the Green Bin. Thus, the Green and Yellow bins are combined for analysis.
(§2) Three separate PK/PD Models were generated by combining the PK model with each of the three PD models separately as follows. For each PKPD model, the corresponding PD risk score was added to the raw PK score (bin). A total PD risk score that was negative, represents a reduction of the baseline PK score, while a total PD risk score that was positive represented an increase in the baseline PK score.
(§3) Samples from patients treated with Methadone in the START trial described in Example 1 above were used (N=352). […] Each model was tested as described below against Sample 1, Sample 2 and/or the Full Sample.
(§4) Pearson's product moment, Chi-square with Yates correction were calculated. Diagnostic tests, odds ratios, Pearson's product moment, Chi-square with Yates correction were calculated using MEDCALC and R version 3.3.1.
For PK/PD Model 1, final score was the sum of the PD 1 score and the PK score, where PK green=1, PK Yellow=2 and PK red=3. Bins were assigned according to Table 61.

START trial patients [2] = assay: Combinatorial gene modeling: composite genetic risk score (biology-based and data-based) vs non-completion
[3] = test system: patients treated with Methadone in the START trial; assay: PD Model 2 binning vs Methadone completion; format: in vivo, human
Procedure: as §1
PD Model 2: The completion percentage was calculated for each genotype. For each gene and genotype completion percentage, the means and standard deviations were calculated. For each genotype that was one standard deviation away from the mean, towards higher completion, a score of 1 was given. For each genotype that was one standard deviation away from the mean, towards lower completion, a score of −1 was given. For genotypes that were not one standard deviation away, the raw percent difference from the mean was observed as the score. Each score was then normalized across each gene using a scale from 0.2 to 1. Each value was normalized across all genes by converting the percentages on a plus/minus scale of 0, 0.2, 0.5, and 1 according to Table 17. Values that were greater than or equal to 1 SD away were automatically scored as a 1 or −1. The conversion of genotypes to scores was as shown in Tabl 18. The patient's PD risk was calculated by summing the total genotype risk score. Bins were assigned over the range of scores that maximized completers in Green and Yellow bins and non-completers in the Red bin.
as §3, §4

START trial patients [4] = assay: Single-gene logistic regression of non-completion of 24-week opioid agonist replacement therapy (START trial)
[5] = test system: patients treated with Methadone in the START trial; assay: PK/PD Model 2 binning vs Methadone completion; format: in vivo, human
Procedure: as §1, §2, §3, §4

[6] = test system: patients treated with Methadone in the START trial; assay: PK/PD Model 3 binning vs Methadone completion; format: in vivo, human
Procedure: as §1, §2, §3, §4

[7] = PK/PD Model 1, Full Sample, Green bin
[8] = PK/PD Model 1, Full Sample, Red bin
[9] = PK/PD Model 1, Full Sample, Yellow bin
[10] = PK/PD Model 1, Sample 1, Green bin
[11] = PK/PD Model 1, Sample 1, Red bin
[12] = PK/PD Model 1, Sample 1, Yellow bin
[13] = PK/PD Model 1, Sample 2, Green bin
[14] = PK/PD Model 1, Sample 2, Red bin
[15] = PK/PD Model 1, Sample 2, Yellow bin
[16] = composite genetic risk score vs non-completion, adjusted for Dose-bin, 25 gene combinations
[17] = PD Model 2, Full Sample, Green bin, Risk Score −4.2 to −0.2
[18] = PD Model 2, Full Sample, Red bin, Risk Score 1.3+
[19] = PD Model 2, Full Sample, Yellow bin, Risk Score 0.1 to 1
[20] = PD Model 2, Sample 1, Green bin, Risk Score −3.3 to −0.2
[21] = PD Model 2, Sample 1, Red bin, Risk Score 1.3 to 3.7
[22] = PD Model 2, Sample 1, Yellow bin, Risk Score 0.2 to 1
[23] = PD Model 2, Sample 2, Green bin, Risk Score −3.2 to −1
[24] = PD Model 2, Sample 2, Red bin, Risk Score 0.5 to 2.7
[25] = PD Model 2, Sample 2, Yellow bin, Risk Score −0.9 to 0.3
[26] = Table 4.3, 24-week treatment, logistic regression with dose category
[27] = PK/PD Model 2, Full Sample, Green bin, Risk Score −2.2 to 1
[28] = PK/PD Model 2, Full Sample, Red bin, Risk Score 2.7 to 4.7
[29] = PK/PD Model 2, Full Sample, Yellow bin, Risk Score 1.1 to 2.5
[30] = PK/PD Model 2, Sample 1, Green bin, Risk Score −2.3 to 2
[31] = PK/PD Model 2, Sample 1, Red bin, Risk Score 3.3 to 6.7
[32] = PK/PD Model 2, Sample 1, Yellow bin, Risk Score 2.2 to 3.2
[33] = PK/PD Model 2, Sample 2, Green bin, Risk Score −2.2 to 1
[34] = PK/PD Model 2, Sample 2, Red bin, Risk Score 2.7 to 4.7
[35] = PK/PD Model 2, Sample 2, Yellow bin, Risk Score 1.1 to 2.5
[36] = PK/PD Model 3, Full Sample, Green bin, Risk Score −1.3 to 1.3
[37] = PK/PD Model 3, Full Sample, Red bin, Risk Score 2.4+
[38] = PK/PD Model 3, Full Sample, Yellow bin, Risk Score 1.4 to 2.3
[39] = PK/PD Model 3, Sample 1, Green bin, Risk Score −0.8 to 1.3
[40] = PK/PD Model 3, Sample 1, Red bin, Risk Score 2.4 to 5.1
[41] = PK/PD Model 3, Sample 1, Yellow bin, Risk Score 1.4 to 2.3
[42] = PK/PD Model 3, Sample 2, Green bin, Risk Score −1.1 to 0.8
[43] = PK/PD Model 3, Sample 2, Red bin, Risk Score 2.2 to 4.3
[44] = PK/PD Model 3, Sample 2, Yellow bin, Risk Score 0.9 to 2.1

`CCC(=O)C(CC(C)N(C)C)(c1ccccc1)c1ccccc1` (stereo not shown) [Methadone, methadone] was tested, and the Completers [1, 7] was 262, the “Non Completers” value [1, 7] was 23 and the Completers [1, 8] was 2. The “Non Completers” value [1, 8] was 6, the Completers [1, 9] was 43 and the “Non Completers” value [1, 9] was 16. For the same compound, the Completers [1, 10] was 137, the “Non Completers” value [1, 10] was 11 and the Completers [1, 11] was 2. For the same compound, the “Non Completers” value [1, 11] was 3, the Completers [1, 12] was 17 and the “Non Completers” value [1, 12] was 6. For the same compound, the Completers [1, 13] was 134, the “Non Completers” value [1, 13] was 10 and the Completers [1, 14] was 0. For the same compound, the “Non Completers” value [1, 14] was 2, the Completers [1, 15] was 25 and the “Non Completers” value [1, 15] was 5. For the same compound, the “Odds Ratio for Non-Completers” value (START trial patients [2]; Biology-Based, ORG4-CYP2B6-CYP2C19) was 1.38, the “Odds Ratio for Non-Completers” value (START trial patients [2]; Biology-Based, ORG4-CYP2C19) was 1.53 and the “Odds Ratio for Non-Completers” value (START trial patients [2]; Biology-Based, ORG4-CYP2C19-1A2) was 1.53. For the same compound, the “Odds Ratio for Non-Completers” value (START trial patients [2]; Biology-Based, ORG4-CYP2C19-2C9) was 1.44, the “Odds Ratio for Non-Completers” value (START trial patients [2]; Biology-Based, ORG4-CYP2C19-2D6) was 1.34 and the “Odds Ratio for Non-Completers” value (START trial patients [2]; Data-Based, ORG4-CYP2B6-CYP2C19) was 1.9. The “Odds Ratio for Non-Completers” value (START trial patients [2]; Data-Based, ORG4-CYP2C19) was 1.76, the “Odds Ratio for Non-Completers” value (START trial patients [2]; Data-Based, ORG4-CYP2C19-1A2) was 1.46 and the “Odds Ratio for Non-Completers” value (START trial patients [2]; Data-Based, ORG4-CYP2C19-2C9) was 1.77. The “Odds Ratio for Non-Completers” value (START trial patients [2]; Data-Based, ORG4-CYP2C19-2D6) was 1.72, the “composite endpoints significant, biology-based model” value (START trial patients [2]; [16]) was 7 of 25 and the “composite endpoints significant, data-based model” value (START trial patients [2]; [16]) was 23 of 25. The Completers [3, 17] was 101, the “Non Completers” value [3, 17] was 7 and the Completers [3, 18] was 86. For the same compound, the “Non Completers” value [3, 18] was 20, the Completers [3, 19] was 120 and the “Non Completers” value [3, 19] was 18. For the same compound, the Completers [3, 20] was 58, the “Non Completers” value [3, 20] was 3 and the Completers [3, 21] was 43. For the same compound, the “Non Completers” value [3, 21] was 12, the Completers [3, 22] was 55 and the “Non Completers” value [3, 22] was 5. The Completers [3, 23] was 70, the “Non Completers” value [3, 23] was 2 and the Completers [3, 24] was 32. For the same compound, the “Non Completers” value [3, 24] was 9, the Completers [3, 25] was 57 and the “Non Completers” value [3, 25] was 6. The “OR (95% CI) of non-completion, COMT VAL/MET vs MET/MET” value (START trial patients [4]; [26]) was 2.76 (0.99-7.68), the “OR (95% CI) of non-completion, COMT VAL/VAL vs MET/MET” value (START trial patients [4]; [26]) was 3.16 (1.07-9.31) and the “OR (95% CI) of non-completion, COMT VAL/VAL vs VAL/MET” value (START trial patients [4]; [26]) was 1.14 (0.56-2.34). The “OR (95% CI) of non-completion, CYP3A4 EM vs IM + PM” value (START trial patients [4]; [26]) was 1.66 (0.48-5.77), the “OR (95% CI) of non-completion, HTR2A Intermediate vs Normal” value (START trial patients [4]; [26]) was 0.58 (0.25-1.36) and the “OR (95% CI) of non-completion, HTR2A Intermediate vs Reduced” value (START trial patients [4]; [26]) was 0.73 (0.35-1.52). For the same compound, the “OR (95% CI) of non-completion, HTR2A Normal vs Reduced” value (START trial patients [4]; [26]) was 1.26 (0.51-3.09), the “OR (95% CI) of non-completion, SLC6A4 L/L vs S/S” value (START trial patients [4]; [26]) was 0.54 (0.23-1.23) and the “OR (95% CI) of non-completion, SLC6A4 L/S vs L/L” value (START trial patients [4]; [26]) was 0.77 (0.36-1.65). The “OR (95% CI) of non-completion, SLC6A4 L/S vs S/S” value (START trial patients [4]; [26]) was 0.41 (0.19-0.91), the “times more likely not to complete the 24-week treatment, SLC6A4 reduced phenotype compared to intermediate phenotype” value (START trial patients [4]; […]) was 2.41 times and the “effect of dose level (Dose-bin-category covariate) on non-completion” value (START trial patients [4]; significance at p-value ≤0.05 in the single-gene logistic regression models) was “significant for all eleven genes; also recorded: played an important role”. The “times more likely not to complete the 24-week treatment, COMT high phenotype compared to reduced phenotype” value (START trial patients [4]; text statement of odds ratio) was 3.16 times, the Completers [5, 27] was 167 and the “Non Completers” value [5, 27] was 8. For the same compound, the Completers [5, 28] was 60, the “Non Completers” value [5, 28] was 20 and the Completers [5, 29] was 80. The “Non Completers” value [5, 29] was 17, the Completers [5, 30] was 88 and the “Non Completers” value [5, 30] was 3. For the same compound, the Completers [5, 31] was 27, the “Non Completers” value [5, 31] was 8 and the Completers [5, 32] was 41. For the same compound, the “Non Completers” value [5, 32] was 9, the Completers [5, 33] was 92 and the “Non Completers” value [5, 33] was 2. For the same compound, the Completers [5, 34] was 19, the “Non Completers” value [5, 34] was 9 and the Completers [5, 35] was 48. For the same compound, the “Non Completers” value [5, 35] was 6, the Completers [6, 36] was 150 and the “Non Completers” value [6, 36] was 7. For the same compound, the Completers [6, 37] was 64, the “Non Completers” value [6, 37] was 28 and the Completers [6, 38] was 93. The “Non Completers” value [6, 38] was 10, the Completers [6, 39] was 80 and the “Non Completers” value [6, 39] was 2. The Completers [6, 40] was 26, the “Non Completers” value [6, 40] was 12 and the Completers [6, 41] was 50. For the same compound, the “Non Completers” value [6, 41] was 6, the Completers [6, 42] was 77 and the “Non Completers” value [6, 42] was 2. For the same compound, the Completers [6, 43] was 24, the “Non Completers” value [6, 43] was 10 and the Completers [6, 44] was 58. For the same compound, the “Non Completers” value [6, 44] was 5.
